test system: RS4;11 cells; assay: Cell viability assay (CellTiter-Glo) in RS4;11 cells; assay type: cell-based; details: Homo sapiens, 72 h; RS4;11 cells; cell viability, 3 days, CellTiter-Glo; read-out: IC50
Procedure, shortened: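 Three-day compound treatment of RS4;11 ALL cells (5000/well, 3-fold dilution series of 8 or 12 points), with IC50 from a nonlinear least-squares fit to CellTiter-Glo viability data.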

Q: Which IC50 does the source give for Cc1ncsc1-c1ccc(CNC(=O)[C@@H]2C[C@@H](O)CN2C(=O)[C@@H](NC(=O)CCCNC(=O)CN2CCN(c3ccc(Nc4nc5cccc(-c6ccc(S(C)(=O)=O)cc6)n5n4)cc3)CC2)C(C)(C)C)cc1 [JA-125, (2S,4R)-1-((S)-3,3-Dimethyl-2-(4-(2-(4-(4-((5-(4-(methylsulfonyl)phenyl)-[1,2,4]triazolo[1,5-a]pyridin-2-yl)amino)phenyl)piperazin-1-yl)acetamido)butanamido)butanoyl)-4-hydroxy-N-(4-(4-methylthiazol-5-yl)benzyl)pyrrolidine-2-carboxamide] here?
A: > 10 µM

Q: How did the IC50 turn out when O=C1CCC(N2C(=O)c3ccc(C#CCCCCC(=O)N4CCC(n5cc(-c6cnc7cccc(-c8cc(F)c(CN9CCOCC9)c(F)c8)c7n6)cn5)CC4)cc3C2=O)C(=O)N1 (stereo not shown) [JA-258, 5-(7-(4-(4-(8-(3,5-Difluoro-4-(morpholinomethyl)phenyl)quinoxalin-2-yl)-1H-pyrazol-1-yl)piperidin-1-yl)-7-oxohept-1-yn-1-yl)-2-(2,6-dioxopiperidin-3-yl)isoindoline-1,3-dione] was run?
A: 0.647 µM

Q: With CS(=O)(=O)c1ccc(-c2cccc3nc(Nc4ccc(N5CCN(CC(=O)NCCCNc6ccc7c(c6)C(=O)N(C6CCC(=O)NC6=O)C7=O)CC5)cc4)nn23)cc1 (stereo not shown) [JA-210, N-(3-((2-(2,6-Dioxopiperidin-3-yl)-1,3-dioxoisoindolin-5-yl)amino)propyl)-2-(4-(4-((5-(4-(methylsulfonyl)phenyl)-[1,2,4]triazolo[1,5-a]pyridin-2-yl)amino)phenyl)piperazin-1-yl)acetamide] as the molecule, how does the IC50 read?
A: > 10 µM

Q: Cc1ncsc1-c1ccc(CNC(=O)[C@@H]2C[C@@H](O)CN2C(=O)[C@@H](NC(=O)CCCCC(=O)N2CCC(n3cc(-c4cnc5cccc(-c6cc(F)c(CN7CCOCC7)c(F)c6)c5n4)cn3)CC2)C(C)(C)C)cc1 [JA-041, (2S,4R)-1-[(2S)-2-[[6-[4-[4-[8-[3,5-Difluoro-4-(morpholinomethyl)phenyl]quinoxalin-2-yl]pyrazol-1-yl]-1-piperidyl]-6-oxo-hexanoyl]amino]-3,3-dimethyl-butanoyl]-4-hydroxy-N-[[4-(4-methylthiazol-5-yl)phenyl]methyl]pyrrolidine-2-carboxamide] was tested. Which IC50 did it give?
A: > 10 µM

Q: O=C(CN1CCC(n2cc(-c3cnc4cccc(-c5cc(F)c(CN6CCOCC6)c(F)c5)c4n3)cn2)CC1)NCCOCCOCCOCCOCCNc1ccc2c(c1)C(=O)N(C1CCC(=O)NC1=O)C2=O (stereo not shown) [JA-172, 2-(4-(4-(8-(3,5-Difluoro-4-(morpholinomethyl)phenyl)quinoxalin-2-yl)-1H-pyrazol-1-yl)piperidin-1-yl)-N-(14-((2-(2,6-dioxopiperidin-3-yl)-1,3-dioxoisoindolin-5-yl)amino)-3,6,9,12-tetraoxatetradecyl)acetamide] was tested. Which IC50 did it give?
A: > 10 µM

Q: Cc1cnc(Nc2ccc(N3CCN(C(=O)CCCCCCCCC(=O)N[C@H](C(=O)N4C[C@H](O)C[C@H]4C(=O)NCc4ccc(-c5scnc5C)cc4)C(C)(C)C)CC3)cc2)nc1Nc1cccc(S(=O)(=O)NC(C)(C)C)c1 [JA-028, (2S,4R)-1-((S)-2-(10-(4-(4-((4-((3-(N-(tert-Butyl)sulfamoyl)phenyl)amino)-5-methylpyrimidin-2-yl)amino)phenyl)piperazin-1-yl)-10-oxodecanamido)-3,3-dimethylbutanoyl)-4-hydroxy-N-(4-(4-methylthiazol-5-yl)benzyl)pyrrolidine-2-carboxamide] was tested. Which IC50 did it give?
A: > 10 µM

Q: With CS(=O)(=O)c1ccc(-c2cccc3nc(Nc4ccc(N5CCN(C(=O)CNc6cccc7c6C(=O)N(C6CCC(=O)NC6=O)C7=O)CC5)cc4)nn23)cc1 (stereo not shown) [JA-014, 2-(2,6-Dioxo-piperidin-3-yl)-4-[2-(4-{4-[5-(4-methanesulfonyl-phenyl)-[1,2,4]triazolo[1,5-a]pyridin-2-ylamino]-phenyl}-piperazin-1-yl)-2-oxo-ethylamino]-isoindole-1,3-dione] as the molecule, how does the IC50 read?
A: 3.34 µM

From patent US20230093099A1, “COMPOUNDS AND METHODS OF TREATING CANCERS” (CULLGEN (SHANGHAI), INC., priority 2019, published 2023)
